Laboratory results from PMC4735555, “Crystal structure of the N-myristoylated lipopeptide-bound MHC class I complex” (Nature Communications, 2016).

Key:
[1] = system: 2N5.1 (Mamu-B*098-transfected LLC-MK2 cells as Ag-presenting cells); test: Ag presentation by LLC-MK2 cells transfected with rhesus MHC class I (Mamu) cDNA to 2N5.1; format: cell-based, rhesus macaque; details: C14nef5 presented by LLC-MK2 expressing Mamu-B*098; in triplicate, mean with s.e.m. (graph)
Procedure: Figure 1 Identification of Mamu-B*098 as a lipopeptide Ag-presenting molecule. (a) LLC-MK2 cells transfected with each of the rhesus MHC class I genes were tested for their ability to present C14nef5 to 2N5.1. […] PBMCs obtained from a donor with the potential to present C14nef5 to 2N5.1 were used as a positive control. Experiments were performed in triplicate. Mean values with s.e.m. are shown. (b) The binding of lipopeptide Ags to recombinant β2m-linked Mamu-B*098 and Mamu-A*02 proteins was monitored by biolayer interferometry. Representative data from three independent experiments are shown. Mamu-A*02, a rhesus MHC class I allele known to bind 9-mer peptides, was used as a negative control. (c) Plate-coated MHC class I molecules were tested for their ability to present lipopeptide Ags to 2N5.1. The Ag-specific T-cell response was assessed by measuring the amount of IFN-γ released into the culture medium. Mean values with s.e.m. are shown. […] The original data (coloured as indicated) are depicted with the curve fit (grey) overlaid. The steady-state affinity plot (inset) is also shown. Three independent experiments were performed and mean equilibrium-dissociation constant (KD) values ±s.d. are shown. (e) Amino acid sequences of Mamu-B*098, HLA-B*27:09, Mamu-B*17:01 and human CD1a are shown. […] Solid and open triangles indicate paired and unpaired cysteine residues, respectively. […]

Mamu-B*098 = test: Biolayer interferometry binding to β2m-linked Mamu-B*098; design: species or system rhesus macaque; details: Octet RED96; biotinylated β2m-linked Mamu-B*098; lipopeptide 10 μM, 45 min, then 30 min without; 20 mM Tris-HCl pH 7.5, 150 mM NaCl, 2% DMSO; 30 °C; representative of three independent experiments
From the text: (§1) Single-chain MHC proteins in which β2m was linked via a Gly-Ser linker (GGGGSGGSGSGGGSS) to the ectodomain of either Mamu-B*098 or Mamu-A*02, followed by a biotinylation sequence peptide (LHHILDAQKMVWNHR), were also expressed in E. coli and were purified in a similar manner to the trimer complex of Mamu-B*098, β2m and C14nef5. The β2m-linked Mamu-B*098 protein was refolded without C14nef5, whereas the β2m-linked Mamu-A*02 protein was refolded in the presence of the YY9 peptide (YTSGPGIRY). These recombinant proteins (3 mg) were biotinylated by being incubated for 12 h at 20 °C with 2 μg of BirA enzyme (Sigma-Aldrich, St Louis, MO) in a biotinylation buffer containing 100 mM Tris-HCl pH 8.0, 5 mM MgCl2, 4.5 mM ATP and 4 mM D-biotin, and were purified by size-exclusion chromatography.
(§2) The binding of ligands to MHC class I molecules was analysed using the Octet RED96 system equipped with a streptavidin-conjugated biosensor (Pall ForteBio, Menlo Park, CA) according to the manufacturer's instructions. Biotinylated β2m-linked Mamu-B*098 and Mamu-A*02 proteins were immobilized on the sensor tip surface with a signal magnitude of ∼5.0 nm. […] After reference subtraction, binding signals were analysed using the BIAevaluation 3.1 software. […]

Mamu-A*02 = test: Biolayer interferometry binding to β2m-linked Mamu-A*02; design: species or system rhesus macaque; details: Octet RED96; biotinylated β2m-linked Mamu-A*02 (refolded with YY9), negative control; lipopeptide 10 μM, 45 min; pH 7.5, 2% DMSO; 30 °C
From the text: as §1, §2

2N5.1 = 2N5.1 response to C14nef5 in the presence of rhesus PBMCs and its blocking by mAbs; format: cell-based, rhesus macaque; details: rhesus PBMCs derived from a positive donor
Procedure: The rhesus macaques (Macaca mulatta) used in this study were treated humanely in accordance with institutional regulations, and the experimental protocols were approved by the Committee for Experimental Use of Non-human Primates at the Institute for Virus Research and at the Primate Research Institute, Kyoto University. Rhesus macaque monocytes were isolated from PBMCs using MACS MicroBeads (Miltenyi Biotec, Bergisch Gladbach, Germany) conjugated with cross-reactive anti-human CD14 Abs. After immunizing BALB/c mice with these monocytes, spleen cells were obtained and fused with SP2/0 myeloma cells using the standard polyethylene glycol method. Culture supernatants of the hybridoma clones were tested at a dilution of 1:1 for their reactivity to rhesus macaque monocytes by flow cytometry and positive clones were subjected to T-cell assays to assess blocking activities.

[2] = system: 2N5.1 (Mamu-B*098 Cys167 to Ser mutant); test: Presentation of C14nef5 to 2N5.1 by the cysteine to serine (position 167) mutant of Mamu-B*098; format: cell-based, rhesus macaque; details: data not shown

Question: “C14-Gly-Gly-Ala-Ile-Ser [C14nef5, N-myristoylated 5-mer peptide (C14-Gly-Gly-Ala-Ile-Ser; C14nef5) derived from the SIV Nef protein]” was tested. Which “stimulation of 2N5.1 to produce IFN-γ by Mamu-B*098-transfected LLC-MK2 cells” value [1] did it give?
Answer: stimulated 2N5.1 cells to produce interferon-γ (IFN-γ)

Question: What about the “physical interaction with immobilized Mamu-B*098 (biolayer interferometry)” value (Mamu-B*098) of the same substance?
Answer: demonstrated for Mamu-B*098

Question: And the “physical interaction with immobilized Mamu-A*02 (biolayer interferometry)” value (Mamu-A*02)?
Answer: not for the control protein Mamu-A*02

Question: And the “2N5.1 response (IFN-γ production) in the presence of rhesus PBMCs” value (2N5.1)?
Answer: responded to C14nef5

Question: And the “effect of Cys167 to Ser mutation on ability of Mamu-B*098 to present C14nef5 to 2N5.1” value [2]?
Answer: affected neither the overall secondary structure nor the ability of Mamu-B*098 to present C14nef5 to 2N5.1
